Experimental data reported in patent publication US5981577A, “α-methylene peperomins and halogenated derivatives thereof” (Development Center for Biotechnology, priority 1998, dated 1999).
In brackets after ≈: the same amount, converted by molar mass. Like-named read-outs stand apart in the source and are kept apart here.

Legend:
[1] = tested on: MOLT-4; assay: in vitro cytotoxicity by the MTT assay, MOLT-4; format: cell-based, human
Description: (§1) Compounds 1-9 were evaluated for in vitro cytotoxicity by the MTT assay, against four types of human tumor cell lines, including COLO 205, HA22T, SKBR3, and MOLT-4.
(§2) COLO 205 was grown as a monolayer in RPMI 1640 (Gibco) with 10% fetal serum (FBS, Hyclon). HA22T/VGH was grown as a monolayer in DMEM/F12 medium (Gibco) supplemented with 10% FBS and […] nonessential amino acid (Gibco, BRL). SKBr3 was grown as a monolayer in DMEM/F12 medium (Gibco) with 10% FCS and 1% penicillin/streptomycin (Gibco, BRL). MOLT-4 was grown as a suspension cell line in RPMI 1640 supplemented with 10% FCS and 1% penicillin/streptomycin (Gibco, BRL). Exponentially growing cell cultures were maintained in a humidified incubator (NAPCO, Model 5410) with an atmosphere of 5% CO2 -95% air at 37° C.
(§3) In principle, the assay is dependent on the cellular reduction of MTT (Sigma Chemical Co.) by the mitochondrial dehydrogenase of viable cells to a dark blue formazan product. The viable cell number is directly proportional to the production of formazan, which can be measured spectrophotometrically following solubilization.
(§4) Single cell suspensions were obtained by mechanical disaggregation of the floating cell line (MOLT-4) and by trypsinization of the monolayer cultures (COLO 205, HA22T/VGH, SKBr3) and counted by trypan blue exclusion. The cell suspensions (180 μl) were added into 96-well microtiter plates (Nunc 67008) using a multichannel pipette, and the incubation was allowed for 24 h.
(§5) Each test compound was dissolved in a 10% DMSO (Sigma, D-8779) and 90% DPBS solution. 20 μl of this solution was dispensed to each microtiter plate well, and diluted to give final concentrations ranging from 100 μg/ml to 0.01 μg/ml by 10-fold dilutions. The cells were then incubated in the presence of the drug (the test compound) for a further 72 h. At the end of this time, 20 μl of a MTT solution (5 mg/ml) was added to each well and the incubation was allowed a further 4 h. After this time, the culture plates containing suspension lines or any detached cells were centrifuged at a low speed of 1000 rpm for 5 min. 170 μl of the culture medium supernatant was removed from each well and replaced by 200 μl of DMSO. After the solubilization of formazans, the optical density was then read by an automated spectrophotometric plate reader (ELISA, Molecular Device Emax) at a wavelength of 545-690 nm. Readings were transferred to a microcomputer and final reports were generated using especially developed software.

[2] = tested on: SKBR3; assay: in vitro cytotoxicity by the MTT assay, SKBR3; format: cell-based, human
Description: as §1, §2, §3, §4, §5

[3] = tested on: HA22T; assay: in vitro cytotoxicity by the MTT assay, HA22T; format: cell-based, human; conditions: 72 h
Description: as §1, §2, §3, §4, §5

[4] = tested on: COLO 205; assay: in vitro cytotoxicity by the MTT assay, COLO 205; format: cell-based, human
Description: as §1, §2, §3, §4, §5

[5] = tested on: leukemia cells; conditions: versus other solid tumor cells; cited from earlier work
[6] = Homo sapiens, MOLT-4, MTT, 72 h, read-out: IC50
[7] = Homo sapiens, SK-BR-3, SKBR3, MTT, 72 h, read-out: IC50
[8] = Homo sapiens, MTT, read-out: IC50
[9] = Homo sapiens, COLO 205, MTT, 72 h, read-out: IC50

Row | Compound | IC50 ([1]; MOLT-4, MTT, 72 h) [µg/mL] | IC50 ([2]; SKBR3, MTT, 72 h) [µg/mL] | IC50 ([3]; MTT) [µg/mL] | IC50 ([4]; COLO 205, MTT, 72 h) [µg/mL] | IC50 [1, 6] [µg/mL] | IC50 [2, 7] [µg/mL] | IC50 [3, 8] [µg/mL] | IC50 [4, 9] [µg/mL] | also measured
1 | 2-Bromomethyl-3-[1-(2(or 6)-bromo-3,4-methylenedioxy)-phenyl-1'-(2-bromo-3,4,5-trimethoxy)phenyl]methyl γ-butyrolactone [Compound 9] | 5.8 | 4.5 | 5.7 | 5.6 | – | – | – | – | –
2 | 2-Methylene-3-[1-(2(or 6)-bromo-3,4-methylenedioxy)-phenyl-1'-(2-bromo-3,4,5-trimethoxy)phenyl]methyl γ-butyrolactone [Compound 5] | 3.9 | 5.3 | 5.9 | 6.8 | – | – | – | – | –
3 | COc1cc(C(c2cc(OC)c(OC)c(OC)c2Br)[C@H]2COC(=O)[C@@H]2CBr)c(Br)c(OC)c1OC (relative stereo) [Compound 2, 2-Bromomethyl-3-[bis(2-bromo-3,4,5-trimethoxy)phenyl]-methyl γ-butyrolactone] | – | – | – | – | 3.1 (≈ 4.54 µM) | 3.7 (≈ 5.42 µM) | 6.6 (≈ 9.66 µM) | 5 (≈ 7.32 µM) | –
4 | COc1cc(C(c2cc(OC)c(OC)c(OC)c2Br)[C@@H]2COC(=O)[C@@H]2CBr)c(Br)c(OC)c1OC (relative stereo) [Compound 4, 2-Bromomethyl-3-[bis(2-bromo-3,4,5-trimethoxy)phenyl]-methyl γ-butyrolactone] | – | – | – | – | 4.9 (≈ 7.17 µM) | 4.9 (≈ 7.17 µM) | 6.4 (≈ 9.37 µM) | 4.2 (≈ 6.15 µM) | –
5 | C=C1C(=O)OCC1C(c1cc(OC)c(OC)c(OC)c1)c1cc(OC)c(OC)c(OC)c1 (stereo not drawn) [Compound 1, 2-Methylene-3-[bis(3,4,5-trimethoxy)phenyl]methyl γ-butyrolactone] | – | – | – | – | 2.8 (≈ 6.3 µM) | 4 (≈ 9 µM) | 7.1 (≈ 16 µM) | 2.3 (≈ 5.17 µM) | –
6 | C=C1C(=O)OCC1C(c1ccc2c(c1)OCO2)c1cc(OC)c(OC)c(OC)c1 (stereo not drawn) [Compound 3, 2-Methylene-3-[1-(3,4-methylenedioxy)phenyl-1'-(3,4,5-trimethoxy)phenyl]methyl γ-butyrolactone] | – | – | – | – | 4.3 (≈ 10.8 µM) | 4.6 (≈ 11.5 µM) | 6.4 (≈ 16.1 µM) | 5.8 (≈ 14.6 µM) | –
7 | C=C1C(=O)OCC1C(c1cc(OC)c(OC)c(OC)c1Br)c1cc(OC)c(OC)c(OC)c1Br (stereo not drawn) [Compound 6, 2-Methylene-3-[bis(2-bromo-3,4,5-trimethoxy)phenyl]methyl γ-butyrolactone] | – | – | – | – | 4.3 (≈ 7.14 µM) | 3.7 (≈ 6.14 µM) | 5.9 (≈ 9.8 µM) | 6.7 (≈ 11.1 µM) | –
8 | C=C1C(=O)OCC1C(c1cc(OC)c(OC)c(OC)c1)c1cc(OC)c2c(c1)OCO2 (stereo not drawn) [Compound 7, 2-Methylene-3-[1-(3,4-methylenedioxy-5-methoxy)phenyl-1'-(3,4,5-trimethoxy)phenyl]methyl γ-butyrolactone] | – | – | – | – | 3 (≈ 7 µM) | 4.6 (≈ 10.7 µM) | 7.1 (≈ 16.6 µM) | 4.4 (≈ 10.3 µM) | –
9 | COc1cc(C(c2cc(OC)c3c(c2Br)OCO3)C2COC(=O)C2CBr)c(Br)c(OC)c1OC (stereo not drawn) [Compound 8, 2-Bromomethyl-3-[1-(2(or 6)-bromo-3,4-methylenedioxy-5-methoxy)phenyl-1'-(2-bromo-3,4,5-trimethoxy)phenyl]methyl γ-butyrolactone] | 1.5 (≈ 2.25 µM) | 4.3 (≈ 6.45 µM) | 5.8 (≈ 8.69 µM) | 6.1 (≈ 9.14 µM) | – | – | – | – | –
10 | COc1cccc2c1C(=O)c1c(O)c3c(c(O)c1C2=O)C[C@@](O)(C(=O)CO)C[C@@H]3O[C@H]1C[C@H](N)[C@H](O)[C@H](C)O1 [DOXORUBICIN, reference compound] | – | – | – | – | – | – | – | – | IC50 ([1]; Homo sapiens, MOLT-4, 72 h): 0.01 µg/mL (≈ 0.0184 µM); hypersensitivity to MOLT-4 leukemia cell line ([1]; as compared to other solid tumor cells): hypersensitivity towards leukemia cells as compared to other solid tumor cells; IC50 ([2]; Homo sapiens, SK-BR-3, 72 h): 0.1 µg/mL (≈ 0.184 µM); hypersensitivity towards leukemia cells [5]: hypersensitivity towards leukemia cells versus other solid tumor cells; IC50 ([3]; Homo sapiens): 0.2 µg/mL (≈ 0.368 µM); IC50 ([4]; Homo sapiens, COLO 205, 72 h): 0.2 µg/mL (≈ 0.368 µM)
